Test results: ChEMBL document CHEMBL2163311, “Anti-herpes simplex virus efficacies of 2-aminobenzamide derivatives as novel HSP90 inhibitors” (Bioorg Med Chem Lett, 2012)
Calls of active or inactive are those of the source. The calls are words filed in the database; no cut-off is given here.

Tests used:
Human alphaherpesvirus 1 [1] = assay: Antiviral activity against HSV1 infected herpes simplex keratitis New zealand rabbit model assessed as reduction in viral DNA level in corneal sample compound administered twice daily as gel 24 hrs post inoculation measured on day 9 post infection by RT-PCR analysis; assay type: functional, organism-based; details: Cornea
Human alphaherpesvirus 1 [2] = assay: Antiviral activity against HSV1 infected herpes simplex keratitis New zealand rabbit model assessed as reduction in viral DNA level in corneal sample at 0.025% to 0.1% administered twice daily as gel 24 hrs post inoculation measured on day 9 post infection by RT-PCR analysis; assay type: functional, organism-based; details: Cornea
Human alphaherpesvirus 1 [3] = assay: Antiviral activity against HSV1 infected herpes simplex keratitis New zealand rabbit model assessed as reduction in corneal epithelia involvement score at 0.025% to 0.1% administered twice daily as gel 24 hrs post inoculation measured on day 9 post infection; assay type: functional, organism-based; details: Cornea
Human alphaherpesvirus 1 [4] = assay: Antiviral activity against HSV1 infected herpes simplex keratitis New zealand rabbit model at 0.025% to 0.1% administered twice daily as gel 24 hrs post inoculation measured on day 9 post infection; assay type: functional, organism-based
[5] = Selectivity index, ratio of CC50 for african green monkey Vero cells to EC50 for HSV2 strain 333 infected in african green monkey Vero cells
[6] = Selectivity index, ratio of CC50 for african green monkey Vero cells to EC50 for HSV1 strain F ATCC VR733 infected in african green monkey Vero cells; assay type: toxicity, cell-based; details: read-out: Ratio CC50/EC50
Human alphaherpesvirus 2 [7] = assay: Antiviral activity against HSV2 strain 333 infected in african green monkey Vero cells assessed as inhibition of cytopathic effect at 4 uM after 48 hrs by plaque reduction assay; assay type: functional, cell-based
Human alphaherpesvirus 1 [8] = assay: Antiviral activity against HSV1 strain F ATCC VR733 infected in african green monkey Vero cells assessed as inhibition of cytopathic effect at 4 uM after 48 hrs by plaque reduction assay; assay type: functional, organism-based
Human alphaherpesvirus 2 [9] = assay: Antiviral activity against HSV2 strain 333 infected in african green monkey Vero cells assessed as inhibition of cytopathic effect after 48 hrs by plaque reduction assay; assay type: functional, cell-based; details: for EC50: Human alphaherpesvirus 2, strain 333, Vero
[10] = Cytotoxicity against human MRC5 cells after 48 hrs by MTT assay; assay type: cell-based
Human alphaherpesvirus 1 [11] = assay: Antiviral activity against HSV1 strain F ATCC VR733 infected in african green monkey Vero cells assessed as inhibition of cytopathic effect after 48 hrs by plaque reduction assay; assay type: functional, organism-based; details: for EC50: Human alphaherpesvirus 1, strain F ATCC VR733, Vero
[12] = Cytotoxicity against african green monkey Vero cells assessed as inhibition of cell viability after 48 hrs by MTT assay; assay type: cell-based; details: chlorocebus sabaeus
Human alphaherpesvirus 2 [13] = assay: Antiviral activity against HSV2 strain 333 infected in african green monkey Vero cells assessed as inhibition of cytopathic effect at 3.5 uM after 48 hrs by plaque reduction assay; assay type: functional, cell-based
Human alphaherpesvirus 1 [14] = assay: Antiviral activity against HSV1 strain F ATCC VR733 infected in african green monkey Vero cells assessed as inhibition of cytopathic effect at 3.5 uM after 48 hrs by plaque reduction assay; assay type: functional, organism-based
Human alphaherpesvirus 1 [15] = assay: Antiviral activity against HSV1 infected herpes simplex keratitis New zealand rabbit model at 0.1% administered twice daily as gel 24 hrs post inoculation measured on day 9 post infection; assay type: functional
Human alphaherpesvirus 1 [16] = assay: Antiviral activity against HSV1 infected herpes simplex keratitis New zealand rabbit model at 0.025% administered twice daily as gel 24 hrs post inoculation measured on day 9 post infection; assay type: functional

| SMILES | Activity (Human alphaherpesvirus 1 [1]) | Activity (Human alphaherpesvirus 1 [2]) | Activity (Human alphaherpesvirus 1 [3]) | Activity (Human alphaherpesvirus 1 [4]) | Ratio CC50/EC50 [5] | selectivity ratio [6] | inhibition (Human alphaherpesvirus 2 [7]) | inhibition (Human alphaherpesvirus 1 [8]) | inhibition (Human alphaherpesvirus 2 [9]) | EC50 (Human alphaherpesvirus 2 [9]) | CC50 at 48 h [10] | inhibition (Human alphaherpesvirus 1 [11]) | EC50 (Human alphaherpesvirus 1 [11]) | CC50 at 48 h [12] | inhibition (Human alphaherpesvirus 2 [13]) | inhibition (Human alphaherpesvirus 1 [14]) | Activity (Human alphaherpesvirus 1 [15]) | Activity (Human alphaherpesvirus 1 [16]) |
| --- | --- | --- | --- | --- | --- | --- | --- | --- | --- | --- | --- | --- | --- | --- | --- | --- | --- | --- |
| CC1(C)CC(=O)c2c(C(F)(F)F)nn(-c3ccc(C(N)=O)c(N[C@H]4CC[C@H](O)CC4)c3)c2C1 [SNX-2112] | Dose-dependent effect | Active | Active | Active | 7.21 | 5.9 | Active | Active | Dose-dependent effect | 1850 nM | 21300 nM | Dose-dependent effect | 2260 nM | 13300 nM |  |  |  |  |
| Cc1cn(-c2ccc(C(N)=O)c(N[C@H]3CC[C@H](O)CC3)c2)c2c1C(=O)CC(C)(C)C2 | Dose-dependent effect | Active | Active | Active | 12.94 | 12.6 | Active | Active | Dose-dependent effect | 1000 nM | 24900 nM | Dose-dependent effect | 1030 nM | 12900 nM |  |  |  |  |
| Nc1nc2c(ncn2COCCO)c(=O)[nH]1 [ACYCLOVIR] | Dose-dependent effect | Active | Active |  | >106.95 | > 167 |  |  |  | 1870 nM |  |  | 1200 nM | > 200000 nM | Active | Active |  |  |
| Cc1nn(-c2ccc(C(N)=O)c(N[C@H]3CC[C@H](O)CC3)c2)c2c1C(=O)CC(C)(C)C2 | Dose-dependent effect | Active | Active | Active | 15.46 | 12.1 | Active | Active | Dose-dependent effect | 1750 nM | 54100 nM | Dose-dependent effect | 2240 nM | 27100 nM |  |  | 83.76% | 74.23% |
